Here are results for two compounds from US20130130175A1, “Compound for Photoacid Generator, Resist Composition Using the Same, and Pattern-Forming Method” (CENTRAL GLASS COMPANY, LIMITED, priority 2007, published 2013).

The series can be described thus: Solubility in propylene glycol methyl ether acetate. It is filed as physicochemical. The source says: 1.0 g of sodium 2-(1′-adamantane)carbonyloxy-1,1-difluoroethanesulfonate synthesized in Synthesis Example 8 was weighed and added to 100 g of propylene glycol methyl ether acetate, followed by stirring.
1.0 g of sodium 2-(3′-hydroxy-1′-adamantane)carbonyloxy-1,1-difluoroethanesulfonate synthesized in Synthesis Example 11 was weighed and added to 100 g of propylene glycol methyl ether acetate, followed by stirring.

Where two headings read alike, the source gives them in different places.

For `O=C(OCC(F)(F)S(=O)(=O)O)C12CC3CC(CC(C3)C1)C2` [Synthesis Example 8, triphenylsulfonium 2-(1′-adamantane)carbonyloxy-1,1-difluoroethanesulfonate], the Solubility entry was “completely dissolved”. On to `O=C(OCC(F)(F)S(=O)(=O)O)C12CC3CC(CC(O)(C3)C1)C2` [Synthesis Example 11, triphenylsulfonium 2-(3′-hydroxy-1′-adamantane)carbonyloxy-1,1-difluoroethanesulfonate], for which the Solubility result (1.0 g added to 100 g of propylene glycol methyl ether acetate, stirring) is on record as “completely dissolved”.
